Experimental findings from US20160362416A1, “ANTIVIRAL COMPOUNDS” (Gilead Sciences, Inc., priority 2012, published 2016) are described below.

The test system of experiment [1] is stable HCV 1a RLuc replicon cells (genotype 1a H77 replicon). Put plainly: HCV genotype 1a RLuc replicon reporter assay. The conditions noted are these: Hepatitis C virus; stable genotype 1a H77 RLuc replicon cells, 72 hours. The format is cell-based. In general terms: Replicon systems follow genome replication, usually without infectious particles.
Experiment [2] concerns stable HCV 2a JFH-1 Rluc replicon cells (L31 present in NS5A). As to the kind of experiment: HCV genotype 2a JFH-1 RLuc replicon reporter assay. The format is cell-based. The conditions noted are these: Hepatitis C virus, 72 h, read-out: 2a JFH (nM).
The test system of experiment [3] is NS5A chimeric genotype 2a JFH-1 replicon with genotype 2a J6 strain NS5A gene (M31). Put plainly: HCV genotype 2a J6 NS5A chimeric replicon assay, transient (t). The format is cell-based. The conditions noted are these: Hepatitis C virus, 72 h, read-out: 2a J6 (t) (nM).
Experiment [4] deals with NS5A chimeric genotype 1b Con1 replicon with genotype 3a S52 strain NS5A gene. As to the kind of experiment: HCV genotype 3a NS5A chimeric replicon assay. Conditions: Hepatitis C virus, 72 h, read-out: 3a (nM). It is filed as cell-based. The essentials:
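Stable 1b Con1 RLuc replicon cells, or Huh-Lunet cells transiently transfected with chimeric replicons (Con1 backbone carrying 3a S52 or 4a ED43 NS5A; JFH-1 backbone carrying 2b MD2b-1 NS5A, M31), treated with 3-fold dilutions for 72 h. Renilla luciferase read after lysis; EC50 by non-linear regression.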

Experiment [5] has as its system NS5A chimeric genotype 1b Con1 replicon with genotype 4a ED43 strain NS5A gene. Put plainly: HCV genotype 4a NS5A chimeric replicon assay. It is filed as cell-based. Conditions: Hepatitis C virus, 72 h, read-out: 4a (s) (nM).
In experiment [6] the test system is Q30R in genotype 1a NS5A replicon. Put plainly: Resistance mutant replicon assay, genotype 1a NS5A Q30R. It is filed as cell-based, HCV. Conditions: Hepatitis C virus, read-out: 1a Q30R (nM). The method, then:
Evaluation of cell-based anti-HCV activity: Antiviral potency (EC50) was determined using a Renilla luciferase (RLuc)-based HCV replicon reporter assay. To perform the assay for genotype 1 and 2a JFH-1, stable HCV 1a RLuc replicon cells (harboring a dicistronic genotype 1a H77 replicon that encodes a RLuc reporter), stable HCV lb RLuc replicon cells (harboring a dicistronic genotype 1b Conl replicon that encodes a RLuc reporter), or stable HCV 2a JFH-1 Rluc replicon cells (harboring a dicistronic genotype 2a JFH-1 replicon that encodes a RLuc reporter; with L31 present in NS5A) were dispensed into 384-well plates for EC50 assays. To perform the assay for genotype 2a (with M31 present in NS5A) or 2b, NS5A chimeric genotype 2a JFH-1 replicons that encodes a RLuc-Neo reporter and either genotype 2a J6 strain NS5A gene or genotype 2b MD2b-1 strain NS5A gene (both with M31 present) respectively, were either transiently transfected (t) into Huh-Lunet cells or were established as stably replicating replicon cells (s) is provided. Either cells were dispensed into 384-well plates for EC50 assays. To perform the assay for genotype 3 and 4, NS5A chimeric genotype 1b Conl replicons that encodes a Pi-RLuc reporter and either genotype 3a S52 strain NS5A gene or genotype 4a ED43 strain NS5A gene respectively, were transiently transfected (t) into Huh-Lunet cells, which were subsequently dispensed into 384-well plates. Compounds were dissolved in DMSO at a concentration of 10 mM and diluted in DMSO either manually or using an automated pipeting instrument. Serially 3-fold diluted compounds were either manually mixed with cell culture media and added to the seeded cells or directly added to the cells using an automated instrument. DMSO was used as a negative (solvent; no inhibition) control, and the protease inhibitor ITMN-191 was included at a concentration >100×EC50 as a positive control. 72 hours later, cells were lysed and Renilla luciferase activity quantified as recommended by the manufacturer (Promega-Madison, Wis.). Non-linear regression was performed to calculate EC50 values.
To determine the antiviral potency (EC50) against resistance mutants, resistance mutations, including M28T, Q30R, Q30H, Q30E, L31M, Y93C, Y93H, and Y93N in genotype 1a NS5A, Y93H and L31V/Y93H in genotype 1b NS5A, and Y93H for in genotype 3a NS5A, were introduced individually into either 1a Pi-Rluc or 1b Pi-Rluc replicons by site directed mutagenesis. Replicon RNA of each resistant mutant was transiently transfected into Huh-7-derived cured-51 cells and antiviral potency was determined on these transfected cells as described above.

Experiment [7] deals with Y93H in genotype 1a NS5A replicon. As to the kind of experiment: Resistance mutant replicon assay, genotype 1a NS5A Y93H. Conditions: Hepatitis C virus, read-out: 1a Y93H (nM). The format is cell-based, HCV. The essentials:
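Site-directed mutagenesis → mutant Pi-RLuc replicon RNA → transient transfection, cured-51 Huh-7 cells → 3-fold serial cpd dilutions from DMSO stock, 72 h → RLuc read → EC50, non-linear regression.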

On to `CC[C@H](C)[C@H](NC(=O)OC)C(=O)N1[C@@H](C)CC[C@H]1c1nc2ccc3cc4c(cc3c2[nH]1)OCc1cc(-c2cnc([C@@H]3CC[C@H](C)N3C(=O)[C@@H](NC(=O)OC)C3CCOCC3)[nH]2)ccc1-4` [Comp 12, reference compound], for which the EC50 in experiment [1] worked out at 13 pM; in experiment [2], 0.009 nM; in experiment [3], 0.032 nM; in experiment [4], 0.026 nM; in experiment [5], 17.7 nM; in experiment [6] it was 1.28 nM. Besides, the EC50 in experiment [7] was 1.24 nM.
